pIC50: −log10 of the molar value.
Tests used:
CDK4/D3 = CDK4/D3 (Homo sapiens, UniProt P11802); assay: In vitro enzyme-inhibiting activity, Caliper Mobility Shift method; format: biochemical; conditions: read-out: CDK enzyme-inhibiting activity IC50 CDK4/D3
Description: Measurement of activity for inhibiting CDK4/6 kinase by Caliper Mobility Shift method.
1) Preparation of 1-Fold Buffer for CDK4 Kinase 800 μL stock solution containing 1000 mM HEPES (pH 7.5), and 40 μL stock solution containing 10% Triton X-100, were added to 39160 μL ultra pure water, and the resultant mixture was mixed homogeneously.
25 mL stock solution containing 4% Coating Reagent #3 (provided with the 12-sipper chip used in Caliper device), 50 mL stock solution containing 1000 mM HEPES (pH 7.5), 50 mL stock solution containing 0.5 M EDTA, and 0.25 mL stock solution containing 30% Brij-35, were added to 374.75 mL ultra pure water, and the resultant mixture was mixed homogeneously.
7 μL CDK4/D3 enzyme solution, and 9 μL stock solution containing 1M DTT were added to 1784 μL 1-fold CDK4 kinase buffer, and the resultant mixture was mixed homogeneously.
10 μL stock solution containing 100 mM ATP, 45 μL stock solution containing 1M MgCl2, and 45 μL FAM-tagged polypeptide 8, were added to 1700 μL 1-fold CDK4 kinase buffer, and the resultant mixture was mixed homogeneously.
DMSO solution containing 10 mM test compound was diluted with DMSO to a solution containing 50 μM test compound (which was used as a stock solution).
1) 5 μL 5-fold test compound solution and 10 μL 2.5-fold kinase solution were added to the corresponding wells in a 384-well plate, and incubated at room temperature for 10 min.
2) To the corresponding wells, 10 μL 2.5-fold polypeptide solution was added to start the enzymatic reaction, and incubation was performed at 28° C. for 5 h.
To the corresponding wells, 25 μL stop solution was added to stop the reaction.
The data was read by Caliper device, the inhibition rate was calculated by the following formula, and curve fitting was carried out by GraphPad5.0 software to get IC50 value. Inhibition rate=(maximal value−sample value)/(maximal value−minimal value)×100, wherein, maximal value: positive control without addition of test compound; minimal value: negative control without addition of enzyme.

[1] = test system: HGC-27 gastric cancer cell; assay: BrdU cell proliferation assay (Cell Signaling kit); format: cell-based; conditions: Homo sapiens, HGC-27, 72 h; read-out: In vitro cell-inhibiting activity IC50 HGC-27
Description: (§1) Experimental method: cell proliferation assay was carried out by BrdU method (BrdU cell proliferation assay kit, Cell Signaling Technology Company).
(§2) Preparation of gradient dilution solutions of test compound: the stock solution containing 10 mM test compound was subjected to 4-fold stepwise dilution with DMSO to prepare solutions containing 2.5 mM, 625 μM, 156 μM, 39 μM, 9.8 μM, and 2.5 μM test compound, respectively. 2 μL DMSO-diluted compound was added to 198 μL culture medium containing 10% FBS to prepare […] test compound, wherein the maximum concentration of the test compound was 100 μM, the concentration of DMSO was 1%, and there were 7 concentration gradients.
HGC-27 medium: DMEM+10% FBS
(1) Cells grown to 80% confluence (in exponential growth phase) were digested with pancreatin, and centrifuged to collect the cells. Cells were re-suspended in FBS-free culture medium, counted, and seeded to a 96-well plate at 4000 cells/well/81 μL. The plates were placed in a cell incubator at 37° C.
(2) After 24 h culture, 9 μL FBS was added to each well to reach a final FBS concentration of 10%. […]
(9) To each well, 100 μL stop solution was added, and OD value at 450 nm was measured by ELISA instrument 3. […]

[2] = test system: U87MG human glioblastoma cell; assay: BrdU cell proliferation assay (Cell Signaling kit); format: cell-based; conditions: U-87 MG, 72 h, read-out: In vitro cell-inhibiting activity IC50 U87MG
Description: as §1, §2
U87MG medium: MEM+10% FBS
(§3) (1) Cells grown to 80% confluence (in exponential growth phase) were digested with pancreatin, and centrifuged to collect the cells. MDA-MB-435S and U87MG cells were re-suspended in FBS-free culture medium, counted, and seeded to a 96-well plate; MDA-MB-435S cells were seeded at 3000 cells/well/81 μL; U87MG cells were seeded at 4000 cells/well/81 MCF-7 cells were resuspended in culture medium containing 1% FBS, and counted and seeded to a 96-well plate, at 4000 cell/well/82 μL. The plates were placed in a cell incubator at 37° C. […]
(§4) (9) To each well, stop solution (100 μL) was added, and OD value at 450 nm was measured by ELISA instrument […]

[3] = test system: MDA-MB-435S human melanoma cell; assay: BrdU cell proliferation assay (Cell Signaling kit); format: cell-based; conditions: 72 h, read-out: In vitro cell-inhibiting activity IC50 MDA-MB-435S
Description: as §1, §2
MDA-MB-435S medium: L-15+10% FBS+0.01 mg/mL insulin
as §3, §4

[4] = test system: MCF-7 human breast cancer cell; assay: BrdU cell proliferation assay (Cell Signaling kit); format: cell-based; conditions: MCF7, 72 h, read-out: In vitro cell-inhibiting activity IC50 MCF-7
Description: as §1, §2
MCF-7 medium: DMEM+10% FBS+0.01 mg/mL insulin
as §3, §4

Sequence of CDK4/D3 (P11802 whole entry): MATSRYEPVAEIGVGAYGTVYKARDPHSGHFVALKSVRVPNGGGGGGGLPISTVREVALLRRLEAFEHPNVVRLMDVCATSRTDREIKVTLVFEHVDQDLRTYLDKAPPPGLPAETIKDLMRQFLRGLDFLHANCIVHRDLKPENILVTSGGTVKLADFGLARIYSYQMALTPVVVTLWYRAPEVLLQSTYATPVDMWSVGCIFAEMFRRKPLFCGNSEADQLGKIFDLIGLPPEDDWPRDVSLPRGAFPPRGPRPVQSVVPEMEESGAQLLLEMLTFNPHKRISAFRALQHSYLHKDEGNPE
Sequence of CDK4/D3 (P30281 whole entry partner): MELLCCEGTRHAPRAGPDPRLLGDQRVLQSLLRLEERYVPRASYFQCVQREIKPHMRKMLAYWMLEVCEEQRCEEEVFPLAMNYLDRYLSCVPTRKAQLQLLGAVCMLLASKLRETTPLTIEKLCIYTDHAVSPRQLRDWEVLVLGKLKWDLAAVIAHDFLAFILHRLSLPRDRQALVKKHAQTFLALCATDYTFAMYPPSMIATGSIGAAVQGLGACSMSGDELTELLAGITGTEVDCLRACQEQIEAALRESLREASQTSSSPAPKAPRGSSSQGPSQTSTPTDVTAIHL

| pIC50 [2] | pIC50 [3] | pIC50 [4] | Structure (SMILES) | pIC50 (CDK4/D3) | pIC50 [1] |
| --- | --- | --- | --- | --- | --- |
|  |  |  | CCN1CCN(Cc2cnc(Nc3cc(-c4cc(F)c5nc(C)n(C(C)C)c5c4)c(F)cn3)nc2)CC1 [Compound 1, 5-((4-ethylpiperazin-1-yl)methyl)-N-(5-fluoro-4-(4-fluoro-1-isopropyl-2-methyl-1H-benzo[d]imidazol-6-yl)pyridin-2-yl)pyrimidin-2-amine] | 8.57 | 6.50 |
| 7.40 | 6.70 | 6.75 | CCN1CCN(Cc2ccc(Nc3ncc(F)c(-c4cc(F)c5nc(C)n(C(C)C)c5c4)n3)nc2)CC1 [LY2835219, reference compound] |  |  |

Reference: patent US9949976B2, “Kinase inhibitor and use thereof” (Sihuan Pharmaceutical Holdings Group Ltd., priority 2013, dated 2018)
